Results: PubChem BioAssay (NCI)
Values joined by “and” are separate entries in the source; they are usually repeats but may differ in a detail not shown here. Equal entries are not always repeated.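 Method: 48-hour compound exposure of cells in 96-well plates, five concentrations, linear interpolation of endpoints. Here, GI50 denotes the concentration required for 50% inhibition of growth. TGI: concentration producing complete growth inhibition.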

Legend:
Test in all cases: NCI-60 cell line screen, 48 h
MDA-N = tested on: MDA-N
DMS 114 small cell lung = tested on: DMS 114 small cell lung
SNB-78 CNS = tested on: SNB-78 CNS
LXFL 529 NSCLC = tested on: LXFL 529 NSCLC
HOP-18 NSCLC = tested on: HOP-18 NSCLC
RXF-631 renal = tested on: RXF-631 renal
XF 498 CNS = tested on: XF 498 CNS

Row | Structure (SMILES) | TGI (MDA-N) | TGI (DMS 114 small cell lung) | TGI (SNB-78 CNS) | TGI (LXFL 529 NSCLC) | TGI (HOP-18 NSCLC) | TGI (RXF-631 renal) | TGI (XF 498 CNS) | GI50 (MDA-N)
1 | C=C1C(=O)OC2/C=C(/C)C(OC(C)=O)CC(O)/C(C)=C\C(OC(=O)/C(C)=C\C)C12 (stereo not drawn) | > 100 µM | – | – | – | – | – | – | –
2 | CCc1cccc(C)c1NC(=O)C(=O)Cc1nc2ccccc2s1 | – | > 100 µM | > 100 µM | > 100 µM | > 100 µM | > 100 µM | – | –
3 | N#Cc1c(-c2ccc(Cl)cc2)c2c(n(C3OC(CO)C(O)C(O)C3O)c1=S)CCC2 (stereo not drawn) | > 100 µM | – | – | – | – | – | – | –
4 | COc1ccc(OC)c(NC(=O)CCC/C(CC(=O)c2ccc(O)c(OC)c2)=N\Nc2ccc([N+](=O)[O-])cc2)c1 | – | > 100 µM | > 100 µM | > 100 µM | > 100 µM | > 100 µM | > 100 µM | –
5 | O=S1(=O)OCCOS(=O)(=O)C1Cc1ccccc1 | – | > 100 µM | > 100 µM | – | 50 µM | – | > 100 µM | –
6 | Cc1ccc(Nc2nc(C)c(C(/C=C/c3ccc(/C=C/C(=N/NC(=O)C[n+]4ccccc4)c4sc(Nc5ccc(C)cc5[N+](=O)[O-])nc4C)cc3)=N\NC(=O)C[n+]3ccccc3)s2)c([N+](=O)[O-])c1 | – | > 100 µM | > 100 µM | > 100 µM | 68 µM | > 100 µM | – | –
7 | CN(C(=O)c1ccco1)C(=S)N1CCN(c2ccccc2)CC1 | – | > 100 µM | – | > 100 µM | > 100 µM | – | > 100 µM | –
8 | COc1c(Cl)cc(NC(=S)C#N)cc1Cl | 69.1 µM | 36.3 µM | 85.9 µM | 85.8 µM | 60.1 µM | 51.3 µM | – | –
9 | CC1=C(CO)C(=O)O[C@@H]([C@@H](C)[C@H]2CC[C@H]3[C@@H]4C[C@@H](O)[C@@]5(O)CC=CC(=O)[C@]5(C)[C@H]4CC[C@]23C)C1 | > 100 µM | – | – | – | – | – | – | –
10 | O=C1CC(S(=O)(=O)O)C=C1Nc1cccc(Cl)c1 (stereo not drawn) | – | – | > 100 µM | > 100 µM | > 100 µM | – | > 100 µM | –
11 | COc1cc(/C=C2\Sc3scc(-c4cccc([N+](=O)[O-])c4)[n+]3C2=O)cc(OC)c1OC | 27.1 µM | – | – | – | – | – | – | –
12 | C=C1C(=O)OC2C1C(OC(=O)/C(C)=C/C)CC(O)(CCl)C1C(O)C3OC3(C)C21O (stereo not drawn) | > 50 µM | – | – | – | – | – | – | –
13 | N#CC(c1nc2ccccc2nc1Cl)S(=O)(=O)c1ccccc1 (stereo not drawn) | – | > 100 µM | 94.4 µM | > 100 µM | – | – | > 100 µM | –
14 | COC(=O)C1=C(c2cc(OC)c(OC)c(OC)c2)OC(c2ccc(OC)c(OC)c2)C1 (stereo not drawn) | – | 81.3 µM | – | > 100 µM | > 100 µM | – | > 100 µM | –
15 | C/C(CC(=O)Nc1ccc(Cl)cc1)=N\NC(N)=S | – | > 100 µM | > 100 µM | > 100 µM | – | > 100 µM | > 100 µM | –
16 | COC(=O)c1cc2ccc(OC(C)=O)c(OC(C)=O)c2cn1 | 2.93 µM and 3.68 µM | – | – | – | – | – | – | 2.03 µM
17 | COc1cc(C2C(Cl)C(=O)N2NC(=O)c2ccc(N)cc2)ccc1O (stereo not drawn) | – | – | > 100 µM | 30.8 µM | – | – | 83.6 µM | –
18 | Cc1cc(Cl)ccc1NC(=O)CC/C(CC(=O)C(C)C)=N\NC(=O)C[n+]1ccccc1 | – | > 100 µM | > 100 µM | > 100 µM | > 100 µM | > 100 µM | > 100 µM | –
19 | C[CH2][Sn]([CH2]C)([O]C(=O)C(OC(C)=O)c1ccccc1)[O]C(=O)C(OC(C)=O)c1ccccc1 (stereo not drawn) | > 100 µM | – | – | – | – | – | – | 50 µM
20 | CCOC(=O)NC(=O)c1cn(CCN2CCN(c3ncnc4nc[nH]c34)CC2)c(=O)[nH]c1=O | – | > 100 µM | – | > 100 µM | > 100 µM | > 100 µM | > 100 µM | –
21 | [N-]=[N+]=NC(CI)c1cn([C@H]2C[C@H](O)[C@@H](CO)O2)c(=O)[nH]c1=O (stereo partly drawn) | – | > 100 µM | > 100 µM | > 100 µM | > 100 µM | – | > 100 µM | –
22 | COc1ccc(/C=C2\S/C(=N/Nc3nc(-c4ccccc4)cs3)NC2=O)cc1OC | 33.7 µM | – | – | – | – | – | – | –
23 | Cc1ccccc1NC(=O)C(=O)CC(=O)c1c(C)n([O-])c2ccccc2[n+]1=O | – | > 100 µM | > 100 µM | > 100 µM | > 100 µM | – | – | –
24 | C/C=C(/COC(C)=O)C(=O)OC1C=C(C=O)C(C)(C)C=C1C (stereo not drawn) | > 100 µM | – | – | – | – | – | – | –

Row | Structure (SMILES) | TGI (MDA-N) | TGI (DMS 114 small cell lung) | TGI (SNB-78 CNS) | TGI (LXFL 529 NSCLC) | TGI (HOP-18 NSCLC) | TGI (RXF-631 renal) | TGI (XF 498 CNS) | GI50 (MDA-N)
25 | C=C1c2[nH]c3c([N+](=O)[O-])c(OC)ccc3c2CCN1C(C)=O | – | > 100 µM | > 100 µM | > 100 µM | – | – | – | –
26 | Cc1[nH]c2ccccc2c1C1Cc2ccccc2N1C(=O)/C=C/C(=O)O (stereo not drawn) | – | > 100 µM | > 100 µM | > 100 µM | – | 41.3 µM | > 100 µM | –
27 | CN1c2ccccc2N(C)C23N(C)c4ccccc4N(C)C12N(C)c1ccccc1N3C (stereo not drawn) | – | > 100 µM | – | – | – | > 100 µM | > 100 µM | –
28 | COc1ccc(/C=C\c2cc(OC)c(OC)c(OC)c2)cc1OC | – | – | 40.4 µM | 3.14 µM | 40.4 µM | 40.4 µM | 0.401 µM | –
29 | CC1(C)CC(C)(C)C1=NNC(N)=O | > 100 µM | – | – | – | – | – | – | –
30 | C[C@]12CC[C@H]3[C@@H](CC[C@]4(O)C[C@@H](O)CC[C@]34/C=N/O)[C@@]1(O)CC[C@@H]2C1=COC(=O)C1 | 1.03 µM | – | – | – | – | – | – | –
31 | O=C(c1ccccc1)c1cccc(C(=O)c2ccccc2)c1 | – | > 100 µM | > 100 µM | > 100 µM | > 100 µM | – | > 100 µM | –
32 | Cc1ccc(N2C(=O)C3C=CC(n4[nH]c(=O)n(Cc5ccccc5)c4=O)CC3C2=O)cc1 (stereo not drawn) | – | > 100 µM | > 100 µM | > 100 µM | > 100 µM | – | > 100 µM | –
33 | COc1c2c(nc3ccccc13)-c1cc3c(c(=O)n1C2)COC(=O)C3(O)CC(=O)N1CCOCC1 (stereo not drawn) | > 100 µM | 24.2 µM | > 97.1 µM | > 100 µM | > 79.2 µM | – | 33.9 µM | –
34 | CC(=O)C1C(=O)C(=O)N(c2ccccc2C(C)C)C1=O (stereo not drawn) | – | – | > 100 µM | > 100 µM | > 100 µM | – | > 100 µM | –
35 | C[Si](C)(C)c1ccc(-c2sc(-c3ccc([Si](C)(C)C)s3)c3c2C[Si]2(C3)Cc3c(-c4ccc([Si](C)(C)C)s4)sc(-c4ccc([Si](C)(C)C)s4)c3C2)s1 | – | – | > 100 µM | > 100 µM | – | > 100 µM | > 100 µM | –
36 | C/C=C(/C)C(=O)O[C@H](C[C@@H](C)[C@H]1CC(c2ccoc2)OC1=O)[C@@]1(C)C(=O)CCC2O[C@]21C (stereo partly drawn) | > 100 µM | – | – | – | – | – | – | –
37 | O=CC1CCCc2ccccc21 (stereo not drawn) | – | > 71.4 µM | > 100 µM | > 100 µM | > 100 µM | – | > 100 µM | –
38 | CC1(C)C2C=CC1(C)C1(CC2)OCCO1 (stereo not drawn) | > 100 µM | – | – | – | – | – | – | –
39 | C=C(CO[Si](C)(C)C(C)(C)C)C(C)=O | 32.3 µM | – | – | – | – | – | – | –
40 | CCOC(=O)NC(=O)c1cn(CCCCCCOC(=O)NCCCCCCNC(=O)OCCCCCCn2cc(C(=O)NC(=O)OCC)c(=O)[nH]c2=O)c(=O)[nH]c1=O | – | > 100 µM | – | > 100 µM | > 100 µM | > 100 µM | – | –
41 | COC(=O)c1cc(Cl)ccc1NC(=O)c1ccc([N+](=O)[O-])cc1 | – | > 100 µM | > 100 µM | > 100 µM | – | 36.5 µM | 35.9 µM | –
42 | O=CN/C=C/c1ccc(O)c(O)c1 | – | > 100 µM | > 100 µM | > 100 µM | – | > 100 µM | > 100 µM | –
43 | C[C@]12CCC3[C@@H](CC[C@@H]4c5nonc5CC[C@]34C)C1C/C(=N/O)C2=O (stereo partly drawn) | – | > 100 µM | > 100 µM | > 100 µM | > 100 µM | > 100 µM | 40.4 µM | –
44 | CS[C@]12C(=O)C[C@@]3(C)[C@@H](CC[C@]3(O)C(=O)CO)[C@@H]1CCC1=CC(=O)CC[C@@]12C | 69.4 µM | – | – | – | – | – | – | –
45 | CN(/N=C/c1cccc2cccnc12)c1ccccc1 | – | > 100 µM | > 100 µM | > 100 µM | > 100 µM | – | > 100 µM | –
46 | COC(=O)C1=CC2C(=O)OC1CC2C#N (stereo not drawn) | – | > 100 µM | > 100 µM | > 100 µM | > 100 µM | – | > 100 µM | –
47 | O=C1c2c(O)cccc2C(C2OC(CO)C(O)C(O)C2O)c2cc(CO)cc(O)c21 (stereo not drawn) | > 100 µM | – | – | – | – | – | – | –
48 | CC1=C2C(=CC(C)(C)C2O)C(=O)C(C)(O)C12CC2 (stereo not drawn) | – | 0.0281 µM | 0.226 µM | 0.114 µM | 0.179 µM | – | 0.0309 µM | –
